Source: PMC3406030, “Structure of an MmyB-Like Regulator from C. aurantiacus, Member of a New Transcription Factor Family Linked to Antibiotic Metabolism in Actinomycetes” (PLoS ONE, 2012)

Key:
MltR (Caur_2278) = molecular target: T1, MltR (Caur_2278) (Chloroflexus aurantiacus, UniProt A9WGF5); assay: X-ray crystallography (SAD, […] Å); assay type: binding; details: co-purified ligand, none added; identity tentative, modelled from electron density (related fatty acid, mixture or PEG fragment not excluded); PAS-like C-terminal domain; pH 9.1, 277 K
T1 construct: full length, 291 residues, SeMet derivative; N-terminal His tag cut by TEV leaving Gly0; expressed in E. coli; dimer in crystal, monomer by size exclusion
T1 sequence (A9WGF5 1-291): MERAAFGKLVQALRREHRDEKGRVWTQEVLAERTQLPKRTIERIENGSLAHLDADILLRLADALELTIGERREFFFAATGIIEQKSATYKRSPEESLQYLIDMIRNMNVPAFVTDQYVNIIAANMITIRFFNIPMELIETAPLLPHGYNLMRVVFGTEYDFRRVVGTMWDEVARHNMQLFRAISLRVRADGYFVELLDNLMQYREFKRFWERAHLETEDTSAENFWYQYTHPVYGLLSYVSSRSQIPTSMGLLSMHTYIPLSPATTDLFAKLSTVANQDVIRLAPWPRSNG

[1] = molecular target: MmyB-like transcription regulator MltR (Caur_2278) from Chloroflexus aurantiacus (Chloroflexus aurantiacus J-10-fl) (UniProt A9WGF5); assay: crystal structure; SeMet MltR, tag removed, 11.1 mg/ml; 0.2M NaCl, 10.5% polyethylene glycol 8000, 0.1M CHES pH 9.1, 277 K; space group C2, three monomers (1.5 dimers) in the asymmetric unit; bound myristic acid

Compound	X-ray crystallography (SAD, 2.3 Å) (MltR (Caur_2278))	stoichiometry N [1]
CCCCCCCCCCCCCC(=O)O [MYR, myristic acid]	additional electron density in the putative ligand-binding site clearly indicated the presence of a fatty acid-type ligand	
MmyB-like transcription regulator MltR (Caur_2278) from Chloroflexus aurantiacus (from UniProt A9WGF5 1-291) (natural protein)		2
